Structures are written as SMILES.

By Emax is commonly meant the size of the effect at its maximum, as opposed to the concentration needed. Broadly, the EC50 is the concentration needed to bring the measured effect to its halfway point.

The target of the first experiment is T1, mAChR hM4 (Homo sapiens, UniProt P08173).
T1 construct: expressed in transfected cells; host or cells: CHO-K1 (Chinese hamster ovary) cells
T1 sequence (P08173 1-479): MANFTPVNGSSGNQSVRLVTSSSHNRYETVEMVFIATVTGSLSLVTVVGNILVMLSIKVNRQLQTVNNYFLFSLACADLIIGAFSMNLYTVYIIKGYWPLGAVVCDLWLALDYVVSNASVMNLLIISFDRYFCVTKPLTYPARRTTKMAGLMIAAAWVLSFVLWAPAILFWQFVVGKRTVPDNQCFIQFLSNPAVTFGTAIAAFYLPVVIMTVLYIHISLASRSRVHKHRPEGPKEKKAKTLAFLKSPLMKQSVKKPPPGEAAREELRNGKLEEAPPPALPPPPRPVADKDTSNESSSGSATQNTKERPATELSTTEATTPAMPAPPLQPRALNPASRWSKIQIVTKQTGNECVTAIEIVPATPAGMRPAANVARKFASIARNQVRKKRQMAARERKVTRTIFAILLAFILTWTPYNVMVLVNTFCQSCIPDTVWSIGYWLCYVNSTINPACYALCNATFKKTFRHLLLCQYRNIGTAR
As to the kind of experiment: mAChR M4 cell-based functional assay (calcium flux, potentiation of EC20 acetylcholine response). To be noted: % ACh maximum at 30 μM; mAChR hM4 cell-line. The method in brief:
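CHO-K1 cells expressing human M4, loaded with Fluo-4 Ca2+ dye; potentiation of an EC20 acetylcholine response read as increase in fluorescence static ratio. EC50 and Emax from concentration-dependent increase over the EC20 response.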
Background: Calcium flux is commonly read through the fluorescence of an indicator in the cells.
As to `Cc1cnc2sc(C(=O)NCc3ccc(-c4cccnc4F)cc3)cc2c1C` [Compound 101, N-(4-(2-fluoropyridin-3-yl)benzyl)-4,5-dimethylthieno[2,3-b]pyridine-2-carboxamide], the Emax at 30 µM amounted to 41%.
Still for that read-out and setting: then `Cc1cnc2sc(C(=O)NC3COC3)cc2c1C` [Compound 102, 4,5-dimethyl-N-(oxetan-3-yl)thieno[2,3-b]pyridine-2-carboxamide], with 60%.
The same measure, in the same setting: with `Cc1cnc2sc(C(=O)NC3CN(c4cccnc4)C3)cc2c1C` [Compound 103, 4,5-dimethyl-N-(1-(pyridin-3-yl)azetidin-3-yl)thieno[2,3-b]pyridine-2-carboxamide] the figure was 76%; with `Cc1nc2sc(C(=O)NC3CC3)c(Cl)c2c(C)c1Cl` [Compound 118, 3,5-dichloro-N-cyclopropyl-4,6-dimethylthieno[2,3-b]pyridine-2-carboxamide], 56%.

Still in this experiment, the particulars now being: mAChR hM4 cell-line; >10,000 estimated for low potency compounds lacking a plateau.
In the case of `Cc1nc2sc(C(=O)NC3CCOC3)c(-c3cnn(C)c3)c2c(C)c1Cl` (centres unmarked) [Compound 91, 5-chloro-4,6-dimethyl-3-(1-methyl-1H-pyrazol-4-yl)-N-(tetrahydrofuran-3-yl)thieno[2,3-b]pyridine-2-carboxamide], the EC50 was over 10 µM.
Consider `Cc1nc2sc(C(=O)NC3CN(c4cccnc4)C3)c(-c3cnn(C)c3)c2c(C)c1Cl` [Compound 92, 5-chloro-4,6-dimethyl-3-(1-methyl-1H-pyrazol-4-yl)-N-(1-(pyridin-3-yl)azetidin-3-yl)thieno[2,3-b]pyridine-2-carboxamide], for which the EC50 was over 10 µM.
On to `Cc1nc2sc(C(=O)NC3C4CC5CC(C4)CC3C5)c(-c3cnn(C)c3)c2c(C)c1Cl` (centres unmarked) [Compound 93, N-(adamantan-2-yl)-5-chloro-4,6-dimethyl-3-(1-methyl-1H-pyrazol-4-yl)thieno[2,3-b]pyridine-2-carboxamide], for which the EC50 was over 10 µM.
The same measure, in the same setting: then `Cc1nc2sc(C(=O)NC3[C@H]4C[C@H]3C4)c(-c3cnn(C)c3)c2c(C)c1Cl` (stereo partly drawn) [Compound 94, N-((1R,3S)-bicyclo[1.1.1]pentan-2-yl)-5-chloro-4,6-dimethyl-3-(1-methyl-1H-pyrazol-4-yl)thieno[2,3-b]pyridine-2-carboxamide], with over 10 µM; and `Cc1nc2sc(C(=O)NCc3ccc(S(=O)(=O)C(F)(F)F)cc3)c(-c3cnn(C)c3)c2c(C)c1Cl` [Compound 95, 5-chloro-4,6-dimethyl-3-(1-methyl-1H-pyrazol-4-yl)-N-(4-((trifluoromethyl)sulfonyl)benzyl)thieno[2,3-b]pyridine-2-carboxamide], with over 10 µM.
`Cc1nc2sc(C(=O)N[C@H](C)C3CC3)c(-c3cnn(C)c3)c2c(C)c1Cl` [Compound 96, (R)-5-chloro-N-(1-cyclopropylethyl)-4,6-dimethyl-3-(1-methyl-1H-pyrazol-4-yl)thieno[2,3-b]pyridine-2-carboxamide]: the EC50 was over 10 µM.
Take `Cc1nc2sc(C(=O)N3CCC3)c(-c3cnn(C)c3)c2c(C)c1Cl` [Compound 97, azetidin-1-yl(5-chloro-4,6-dimethyl-3-(1-methyl-1H-pyrazol-4-yl)thieno[2,3-b]pyridin-2-yl)methanone]: the EC50 was over 10 µM.
As for `Cc1nc2sc(C(=O)NCc3cnn(-c4ccccc4)c3)c(-c3cnn(C)c3)c2c(C)c1Cl` [Compound 98, 5-chloro-4,6-dimethyl-3-(1-methyl-1H-pyrazol-4-yl)-N-((1-phenyl-1H-pyrazol-4-yl)methyl)thieno[2,3-b]pyridine-2-carboxamide], the EC50 is over 10 µM.
On the same count and under the same terms, then `COc1ccc(CNC(=O)c2sc3nc(C)c(Cl)c(C)c3c2-c2cnn(C)c2)cc1F` [Compound 99, 5-chloro-N-(3-fluoro-4-methoxybenzyl)-4,6-dimethyl-3-(1-methyl-1H-pyrazol-4-yl)thieno[2,3-b]pyridine-2-carboxamide], with over 10 µM; and `Cc1cnc2sc(C(=O)NC3CN(c4ccc(C(F)(F)F)nc4)C3)cc2c1C` [Compound 100, 4,5-dimethyl-N-(1-(6-(trifluoromethyl)pyridin-3-yl)azetidin-3-yl)thieno[2,3-b]pyridine-2-carboxamide], with over 10 µM; and `Cc1cnc2sc(C(=O)NCc3ccc(-c4cccnc4F)cc3)cc2c1C` [Compound 101, N-(4-(2-fluoropyridin-3-yl)benzyl)-4,5-dimethylthieno[2,3-b]pyridine-2-carboxamide], with 2.7 µM.
The same measure, in the same setting: with `Cc1cnc2sc(C(=O)NC3COC3)cc2c1C` [Compound 102, 4,5-dimethyl-N-(oxetan-3-yl)thieno[2,3-b]pyridine-2-carboxamide] the figure was over 10 µM; with `Cc1cnc2sc(C(=O)NC3CN(c4cccnc4)C3)cc2c1C` [Compound 103, 4,5-dimethyl-N-(1-(pyridin-3-yl)azetidin-3-yl)thieno[2,3-b]pyridine-2-carboxamide], 0.58 µM; with `Cc1cnc2sc(C(=O)NCc3ccc(-c4ccnnc4)s3)cc2c1C` [Compound 104, 4,5-dimethyl-N-((5-(pyridazin-4-yl)thiophen-2-yl)methyl)thieno[2,3-b]pyridine-2-carboxamide], over 10 µM.
On the same count and under the same terms, then `Cc1nc2sc(C(=O)NCC3CCC3)c(-c3cnn(C)c3)c2c(C)c1Cl` [Compound 105, 5-chloro-N-(cyclobutylmethyl)-4,6-dimethyl-3-(1-methyl-1H-pyrazol-4-yl)thieno[2,3-b]pyridine-2-carboxamide], with over 10 µM; and `Cc1nc2sc(C(=O)N3CCCOCC3)c(-c3cnn(C)c3)c2c(C)c1Cl` [Compound 106, (5-chloro-4,6-dimethyl-3-(1-methyl-1H-pyrazol-4-yl)thieno[2,3-b]pyridin-2-yl)(1,4-oxazepan-4-yl)methanone], with over 10 µM; and `Cc1nc2sc(C(=O)N3CCN(C)CC3)c(-c3cnn(C)c3)c2c(C)c1Cl` [Compound 107, (5-chloro-4,6-dimethyl-3-(1-methyl-1H-pyrazol-4-yl)thieno[2,3-b]pyridin-2-yl)(4-methylpiperazin-1-yl)methanone], with over 10 µM.
With `Cc1nc2sc(C(=O)N3CCC(F)(F)CC3)c(-c3cnn(C)c3)c2c(C)c1Cl` [Compound 108, (5-chloro-4,6-dimethyl-3-(1-methyl-1H-pyrazol-4-yl)thieno[2,3-b]pyridin-2-yl)(4,4-difluoropiperidin-1-yl)methanone], the EC50 is over 10 µM.
Same read-out and setting: with `Cc1nc2sc(C(=O)N3CC4C(C3)C4(C)C)c(-c3cnn(C)c3)c2c(C)c1Cl` (centres unmarked) [Compound 109, (5-chloro-4,6-dimethyl-3-(1-methyl-1H-pyrazol-4-yl)thieno[2,3-b]pyridin-2-yl)(6,6-dimethyl-3-azabicyclo[3.1.0]hexan-3-yl)methanone] the figure was over 10 µM.
Same read-out and setting: then `Cc1nc2sc(C(=O)N3CCOCC3)c(-c3cnn(C)c3)c2c(C)c1Cl` [Compound 110, (5-chloro-4,6-dimethyl-3-(1-methyl-1H-pyrazol-4-yl)thieno[2,3-b]pyridin-2-yl)(morpholino)methanone], with over 10 µM.
Still for that read-out and setting: then `Cc1nc2sc(C(=O)N[C@@H](C)C3CC3)c(-c3cnn(C)c3)c2c(C)c1Cl` [Compound 111, (S)-5-chloro-N-(1-cyclopropylethyl)-4,6-dimethyl-3-(1-methyl-1H-pyrazol-4-yl)thieno[2,3-b]pyridine-2-carboxamide], with over 10 µM; and `Cc1nc2sc(C(=O)NCC3CC3)c(-c3cnn(C)c3)c2c(C)c1Cl` [Compound 112, 5-chloro-N-(cyclopropylmethyl)-4,6-dimethyl-3-(1-methyl-1H-pyrazol-4-yl)thieno[2,3-b]pyridine-2-carboxamide], with over 10 µM.
Turning to `Cc1nc2sc(C(=O)N3CCCN(C)CC3)c(-c3cnn(C)c3)c2c(C)c1Cl` [Compound 113, (5-chloro-4,6-dimethyl-3-(1-methyl-1H-pyrazol-4-yl)thieno[2,3-b]pyridin-2-yl)(4-methyl-1,4-diazepan-1-yl)methanone], the EC50 was over 10 µM.
Same read-out and setting: then `Cc1nc2sc(C(=O)NC3COC3)c(-c3ccc4nonc4c3)c2c(C)c1Cl` [Compound 114, 3-(benzo[c][1,2,5]oxadiazol-5-yl)-5-chloro-4,6-dimethyl-N-(oxetan-3-yl)thieno[2,3-b]pyridine-2-carboxamide], with over 10 µM.
Take `Cc1nc2sc(C(=O)NC3COC3)c(-c3cccs3)c2c(C)c1Cl` [Compound 115, 5-chloro-4,6-dimethyl-N-(oxetan-3-yl)-3-(thiophen-2-yl)thieno[2,3-b]pyridine-2-carboxamide]: the EC50 is over 10 µM.
Same read-out and setting: with `Cc1nc2sc(C(=O)NC3COC3)c(-c3ccc4nccnc4c3)c2c(C)c1Cl` [Compound 116, 5-chloro-4,6-dimethyl-N-(oxetan-3-yl)-3-(quinoxalin-6-yl)thieno[2,3-b]pyridine-2-carboxamide] the figure was over 10 µM.
Same read-out and setting: then `Cc1nc2sc(C(=O)NC3COC3)c(-c3ccsc3)c2c(C)c1Cl` [Compound 117, 5-chloro-4,6-dimethyl-N-(oxetan-3-yl)-3-(thiophen-3-yl)thieno[2,3-b]pyridine-2-carboxamide], with over 10 µM; and `Cc1nc2sc(C(=O)NC3CC3)c(Cl)c2c(C)c1Cl` [Compound 118, 3,5-dichloro-N-cyclopropyl-4,6-dimethylthieno[2,3-b]pyridine-2-carboxamide], with 1.5 µM.
Same read-out and setting: then `Cc1nc2sc(C(=O)NCC3CC3)c(Cl)c2c(C)c1Cl` [Compound 119, 3,5-dichloro-N-(cyclopropylmethyl)-4,6-dimethylthieno[2,3-b]pyridine-2-carboxamide], with over 10 µM.
`Cc1nc2sc(C(=O)N[C@@H](C)C3CC3)c(Cl)c2c(C)c1Cl` [Compound 120, (S)-3,5-dichloro-N-(1-cyclopropylethyl)-4,6-dimethylthieno[2,3-b]pyridine-2-carboxamide]: the EC50 is over 10 µM.
With `Cc1nc2sc(C(=O)N[C@H](C)C3CC3)c(Cl)c2c(C)c1Cl` [Compound 121, (R)-3,5-dichloro-N-(1-cyclopropylethyl)-4,6-dimethylthieno[2,3-b]pyridine-2-carboxamide], the EC50 is over 10 µM.

(Values after patent US20160200733A1, “SUBSTITUTED THIENO[2,3-B]PYRIDINE-2-CARBOXAMIDE ANALOGS AS POSITIVE ALLOSTERIC MODULATORS OF THE MUSCARINIC ACETYLCHOLINE RECEPTOR M4” (Vanderbilt University, priority 2013, published 2016).)
